Source: patent publication US7939554B2, “Protein phosphatase inhibitors” (The Cleveland Clinic Foundation, priority 2006, dated 2011)

How the values were obtained:
SHP-2 = target: T1, SHP-2 (Homo sapiens, UniProt Q06124); test: pERK1/2 levels in L5-treated Jurkat cells; type: cell-based; design: endogenous in cells; host or cells: Jurkat; settings: not at lower doses (0.1 to 0.001 μg/ml)
T1 sequence (Q06124 1-593): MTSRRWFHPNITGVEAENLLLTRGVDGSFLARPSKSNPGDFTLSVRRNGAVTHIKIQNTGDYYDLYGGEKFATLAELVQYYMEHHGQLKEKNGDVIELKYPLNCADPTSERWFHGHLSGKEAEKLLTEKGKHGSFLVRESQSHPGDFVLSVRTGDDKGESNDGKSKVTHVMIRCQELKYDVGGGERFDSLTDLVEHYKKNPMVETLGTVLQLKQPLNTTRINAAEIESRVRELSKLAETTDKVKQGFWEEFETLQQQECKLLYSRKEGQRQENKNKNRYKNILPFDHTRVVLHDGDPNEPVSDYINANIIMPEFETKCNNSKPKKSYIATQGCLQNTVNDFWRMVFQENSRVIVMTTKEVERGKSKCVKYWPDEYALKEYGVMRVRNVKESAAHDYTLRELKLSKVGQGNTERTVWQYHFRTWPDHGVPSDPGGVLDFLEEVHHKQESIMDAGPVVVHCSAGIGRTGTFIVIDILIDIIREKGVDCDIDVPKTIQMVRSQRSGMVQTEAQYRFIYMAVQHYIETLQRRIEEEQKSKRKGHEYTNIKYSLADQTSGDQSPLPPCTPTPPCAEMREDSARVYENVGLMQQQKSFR
Experimental: (§1) Jurkat cells in culture medium (3×10^6 cells/ml, 1 ml/tube) were treated with agents for designated times at room temperature. After brief centrifuging in a microfuge (4,000 rpm, 2 min), the cell pellet was lysed on ice for 30 min in 1001 of cold lysis buffer (1% NP40, 50 mM Tris, pH 7.4, 150 mM NaCl, 20 mM NaF, 0.2 mM Na3VO4 and 1 mM Na3MO4) containing a cocktail of proteinase inhibitors (Sigma, 1 tablet/10 ml). The lysates were cleared by centrifuging (14,000 rpm, 10 min) in a microfuge at 4° C. to remove insoluble parts, mixed with equal volume of 2×SDS-PAGE sample buffer, boiled for 5 min and analyzed (˜3×10^5 cells/well) by SDS-PAGE/Western blotting. Relative intensities of phosphotyrosine bands were quantified through densitometry analysis.
To assess the effects of L5 on other phosphatases, pERK1/2 and pLck-pY505 in L5-treated Jurkat cells were quantified. SHP-2 is known to be a positive mediator of pERK1/2 whereas pLck-pY505 is dephosphorylated by PTPase CD45.

B16 melanoma tumors = test: B16 melanoma tumor growth in athymic nude mice; type: in vivo, mouse; settings: 3 mg/kg/day, oral
Experimental: To assess L5 anti-tumor activity, C57BL/6J mice or athymic nude mice (˜8-week old, female, Taconic Farms, Germantown, N.Y.) were inoculated (s.c.) at the flanks with B16 melanoma cells (4×10^4 cells/site). Four days post-inoculation, the mice were treated with PBS (Control) or L5 (˜3 mg/kg body weight/daily, Monday-Friday/week, oral gavage). Tumor volume (n=5) was measured during the study period and calculated using the formula for a prolate spheroid. Student's t test was used for assessing the significance of tumor volume differences among differential treatment groups. Mouse viability (daily) and body weights (weekly) were also recorded during the study period. Major internal organs of the mice were inspected visually upon their termination at the end of the experiment.

intracellular SHP-1 = target: T2, intracellular SHP-1 (Homo sapiens, UniProt P29350); test: tyrosine phosphorylation of SHP-1 substrates in Jurkat cells (SDS-PAGE/Western blotting, densitometry); type: cell-based; settings: for level capable of inhibiting intracellular SHP-1: Jurkat T cells
T2 construct: endogenous in cells; host or cells: Jurkat
T2 sequence (P29350 whole entry): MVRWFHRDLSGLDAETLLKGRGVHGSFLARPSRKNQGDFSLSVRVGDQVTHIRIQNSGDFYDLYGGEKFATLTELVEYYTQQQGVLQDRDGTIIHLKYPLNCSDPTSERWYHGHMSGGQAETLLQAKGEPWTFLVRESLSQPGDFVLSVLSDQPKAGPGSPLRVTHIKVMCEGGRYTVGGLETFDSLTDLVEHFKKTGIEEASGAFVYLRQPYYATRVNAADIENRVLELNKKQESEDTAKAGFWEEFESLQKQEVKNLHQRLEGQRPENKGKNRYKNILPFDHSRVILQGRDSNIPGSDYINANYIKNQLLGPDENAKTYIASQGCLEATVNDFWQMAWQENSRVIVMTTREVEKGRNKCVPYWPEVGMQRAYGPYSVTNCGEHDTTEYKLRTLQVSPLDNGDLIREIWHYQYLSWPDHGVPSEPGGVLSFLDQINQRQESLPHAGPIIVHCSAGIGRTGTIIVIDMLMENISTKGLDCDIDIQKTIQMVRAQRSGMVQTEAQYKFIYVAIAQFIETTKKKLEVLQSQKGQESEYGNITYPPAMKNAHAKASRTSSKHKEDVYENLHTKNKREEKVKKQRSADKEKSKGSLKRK
Experimental: as §1
as §1, with “100 μl” for “1001”, “blotting as described previously (23, 24).” for “blotting.”
as §1, with “100 μl” for “1001”, “blotting as described previously (17, 18).” for “blotting.”

## O=C1C=CC(=O)C(c2cc(Cl)ccc2Cl)=C1 [L5]
SHP-2
  dose reducing pERK1/2 levels: 1 μg/ml
B16 melanoma tumors
  B16 tumor growth in T-cell-deficient mice: not inhibited
Intracellular SHP-1; 0.01 μg/ml, 10 min
  pLck-pY394 induction: 2-3 fold
Intracellular SHP-1; 0.01, 0.1, 1 or 3 μg/ml
  pSlp76 level: obviously increased
  pZap70 level: obviously increased
Intracellular SHP-1; 0.1, 1 or 3 μg/ml, 10 min
  pLck-pY394 induction: > 4 folds
Intracellular SHP-1; 10 min treatment
  dose effective in inducing pLck-pY394 (lowest / only effective dose): 0.01 μg/ml
Intracellular SHP-1
  level capable of inhibiting intracellular SHP-1: 10 ng/mL
Intracellular SHP-1; molar equivalent
  level capable of inhibiting intracellular SHP-1: ~40 nM
Intracellular SHP-1; L5-treated Jurkat cells
  pLAT level: induced
Intracellular SHP-1; by weight
  potency relative to SSG: approximately 1,000 fold
Intracellular SHP-1; in equal molar ratios
  potency relative to SSG: ~350 fold
Intracellular SHP-1; lead compounds, 10 min, densitometry, FIG. 2
  pLck-pY394 induction versus untreated control: ~10 fold
